One assay relates to Jurkat cells. The experiment in a line: IL-2 secretion assay in Jurkat cells activated with CD3/CD28 T Cell Activator. The settings on record: Homo sapiens; Jurkat cells, CD3/CD28 T Cell Activator, 24 h, IL-2 AlphaLISA; read-out: IL-2 Secretion (EC50). The format is cell-based. The method in brief: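 Jurkat cells in Opti-MEM were preincubated 1 h at 37° C with compound (final 10 μM to 300 pM, 16-point 1:2 dilution), then activated with human CD3/CD28 T Cell Activator for 24 h at 37° C. Supernatant IL-2 measured by AlphaLISA; EC50 from 4-parameter logistic fit.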
In general terms: Alpha assays give light when donor and acceptor beads are brought close together.

Another assay deals with T1, Cbl-b (Homo sapiens, UniProt Q13191).
T1 construct: biotin (biotinylated protein)
T1 sequence (Q13191 whole entry, species assumed): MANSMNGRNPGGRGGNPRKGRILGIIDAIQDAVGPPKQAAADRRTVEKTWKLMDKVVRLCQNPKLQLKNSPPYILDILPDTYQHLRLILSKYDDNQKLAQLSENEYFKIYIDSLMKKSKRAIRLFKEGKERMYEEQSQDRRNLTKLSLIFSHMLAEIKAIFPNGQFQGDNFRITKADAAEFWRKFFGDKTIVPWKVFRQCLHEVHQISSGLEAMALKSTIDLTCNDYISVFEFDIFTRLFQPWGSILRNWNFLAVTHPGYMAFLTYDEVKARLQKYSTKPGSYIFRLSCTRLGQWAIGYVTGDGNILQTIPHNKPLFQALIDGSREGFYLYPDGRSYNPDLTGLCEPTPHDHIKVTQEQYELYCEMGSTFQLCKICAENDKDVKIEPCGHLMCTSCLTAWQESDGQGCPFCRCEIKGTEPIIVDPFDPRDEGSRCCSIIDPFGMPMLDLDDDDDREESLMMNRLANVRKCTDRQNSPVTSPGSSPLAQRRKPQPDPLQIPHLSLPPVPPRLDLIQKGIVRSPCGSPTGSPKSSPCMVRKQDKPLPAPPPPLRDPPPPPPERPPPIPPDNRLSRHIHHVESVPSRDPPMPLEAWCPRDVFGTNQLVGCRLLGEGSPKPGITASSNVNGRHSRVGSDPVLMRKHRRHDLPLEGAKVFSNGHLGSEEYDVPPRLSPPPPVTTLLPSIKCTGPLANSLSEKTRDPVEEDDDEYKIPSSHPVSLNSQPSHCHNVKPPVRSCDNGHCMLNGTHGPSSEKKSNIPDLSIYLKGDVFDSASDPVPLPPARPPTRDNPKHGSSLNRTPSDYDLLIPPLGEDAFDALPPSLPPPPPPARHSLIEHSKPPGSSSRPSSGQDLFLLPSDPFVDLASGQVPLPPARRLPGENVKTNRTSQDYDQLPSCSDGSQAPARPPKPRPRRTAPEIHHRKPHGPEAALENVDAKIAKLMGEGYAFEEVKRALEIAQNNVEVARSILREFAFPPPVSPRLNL
The experiment in a line: Cbl-b probe displacement HTRF binding assay. The settings on record: 0.4 nM Cbl-b, 150 nM BODIPY probe. In outline:
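Compound competes with BODIPY probe (150 nM) for biotinylated Cbl-b (0.4 nM) in HEPES/NaCl/Triton/TCEP/BSA buffer; 60 min preincubation, 15 min with probe, room temperature. Tb-streptavidin HTRF read; % displacement vs DMSO and no-protein controls, IC50 from four-parameter fit.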

SMILES strings stand for the structures.

One may read the EC50 as the concentration needed to bring the measured effect to its halfway point. Usually IC50 stands for the concentration that inhibits the measured activity by half. A lower IC50 goes with greater potency in that assay. For `CC(C)Cn1cc(CN2CCC[C@H](C)C2)cc(C(=O)Nc2cc(-c3ccc(F)cc3-c3nncn3C)cc(C3CC3)n2)c1=O` [Example 61, N-[6-cyclopropyl-4-[4-fluoro-2-(4-methyl-1,2,4-triazol-3-yl)phenyl]pyridin-2-yl]-5-[[(3S)-3-methylpiperidin-1-yl]methyl]-1-(2-methylpropyl)-2-oxopyridine-3-carboxamide], the EC50 in the assay with Jurkat cells was under 100 nM. The 50% inhibitory concentration (IC50) at Cbl-b was under 100 nM.

For `C[C@H]1CCCN(Cc2cc(C(=O)Nc3cc(-c4ccc(F)cc4-c4nncn4C)cc(C4CC4)n3)c(=O)n(CC3CCC3)c2)C1` [Example 62, 1-(cyclobutylmethyl)-N-[6-cyclopropyl-4-[4-fluoro-2-(4-methyl-1,2,4-triazol-3-yl)phenyl]pyridin-2-yl]-5-[[(3S)-3-methylpiperidin-1-yl]methyl]-2-oxopyridine-3-carboxamide], the concentration for a half-maximal effect (EC50) in the assay on Jurkat cells is under 100 nM. Moreover, the IC50 at Cbl-b was under 100 nM.

For the compound `COCCNCc1cc(C(=O)Nc2cc(-c3ccc(C#N)cc3-c3nc(C#N)cn3C)cc(C3CC3)n2)c(=O)n(CC2CC2)c1` [Example 63, N-{4-[4-cyano-2-(4-cyano-1-methyl-2-imidazolyl)phenyl]-6-cyclopropyl-2-pyridyl}-1-(cyclopropylmethyl)-5-[(2-methoxyethylamino)methyl]-2-oxo-1,2-dihydronicotinamide], the 50% effective concentration (EC50) in the assay on Jurkat cells was in the range of 100 to 1000 nM. Further, at Cbl-b, the half-maximal inhibitory concentration (IC50) was under 100 nM.

For `COCCNCc1cc(C(=O)Nc2cc(-c3ccc(C#N)cc3-c3ncoc3C)cc(C3CC3)n2)c(=O)n(CC2CC2)c1` [Example 64, N-{4-[4-cyano-2-(5-methyl-1,3-oxazol-4-yl)phenyl]-6-cyclopropyl-2-pyridyl}-1-(cyclopropylmethyl)-5-[(2-methoxyethylamino)methyl]-2-oxo-1,2-dihydronicotinamide], the concentration for a half-maximal effect (EC50) with Jurkat cells was 100 to 1000 nM. Further, the IC50 at Cbl-b is under 100 nM.

`C[C@H]1CCCN(Cc2cc(C(=O)Nc3cc(-c4ccc(F)cc4C(=O)N4CC(F)C4)cc(C4CC4)n3)c(=O)n(C3CC3)c2)C1` [Example 65, N-(6-cyclopropyl-4-{4-fluoro-2-[(3-fluoro-1-azetidinyl)carbonyl]phenyl}-2-pyridyl)-5-{[(S)-3-methyl-1-piperidyl]methyl}-1-cyclopropyl-2-oxo-1,2-dihydronicotinamide]: in the assay with Jurkat cells, the concentration giving a half-maximal response (EC50) lay within 100 to 1000 nM. The compound further gave an IC50 at Cbl-b of under 100 nM.

Turning to `C[C@H]1CCCN(Cc2cc(C(=O)Nc3cc(C#N)cc(-c4ccc(F)cc4C(=O)N4CC(F)C4)c3)c(=O)n(C3CC3)c2)C1` [Example 66, N-{5-cyano-4′-fluoro-2′-[(3-fluoro-1-azetidinyl)carbonyl]-3-biphenylyl}-5-{[(S)-3-methyl-1-piperidyl]methyl}-1-cyclopropyl-2-oxo-1,2-dihydronicotinamide], the concentration giving a half-maximal response (EC50) with Jurkat cells fell in the range of 1000 to 5000 nM. Further, the IC50 at Cbl-b was 100 to 1000 nM.

Take `COCCNCc1cc(C(=O)Nc2cc(-c3ccc(F)cc3C(=O)N3CC(F)(F)C3)cc(C3CC3)c2)c(=O)n(C2CC2)c1` [Example 69, N-{5-cyclopropyl-2′-[(3,3-difluoro-1-azetidinyl)carbonyl]-4′-fluoro-3-biphenylyl}-1-cyclopropyl-5-[(2-methoxyethylamino)methyl]-2-oxo-1,2-dihydronicotinamide]: in the assay with Jurkat cells, the EC50 is 100 to 1000 nM. On Cbl-b, the IC50 is under 100 nM.

As to `COCCNCc1cc(C(=O)Nc2cc(-c3ccc(F)cc3-n3nccc3C)cc(C3CC3)n2)c(=O)n(C2CC2)c1` [Example 70, 1-Cyclopropyl-N-[6-cyclopropyl-4-[4-fluoro-2-(5-methylpyrazol-1-yl)phenyl]pyridin-2-yl]-5-[(2-methoxyethylamino)methyl]-2-oxopyridine-3-carboxamide], the half-maximal effective concentration (EC50) in the assay on Jurkat cells lay in the range of 100 to 1000 nM. Also, at Cbl-b, the 50% inhibitory concentration (IC50) was under 100 nM.

For the compound `COCCNCc1cc(C(=O)Nc2cc(-c3ccc(F)cc3-n3nncc3C)cc(C3CC3)n2)c(=O)n(C2CC2)c1` [Example 71, N-{6-cyclopropyl-4-[4-fluoro-2-(5-methyl-1H-1,2,3-triazol-1-yl)phenyl]-2-pyridyl}-1-cyclopropyl-5-[(2-methoxyethylamino)methyl]-2-oxo-1,2-dihydronicotinamide], the 50% effective concentration (EC50) in the assay with Jurkat cells is under 100 nM. Also, on Cbl-b, the IC50 was under 100 nM.

Turning to `COCCNCc1cc(C(=O)Nc2cc(-c3ccc(F)cc3-n3nncc3CF)cc(C3CC3)n2)c(=O)n(C2CC2)c1` [Example 72, 1-Cyclopropyl-N-[6-cyclopropyl-4-[4-fluoro-2-[5-(fluoromethyl)triazol-1-yl]phenyl]pyridin-2-yl]-5-[(2-methoxyethylamino)methyl]-2-oxopyridine-3-carboxamide], in the assay with Jurkat cells, the EC50 lay within 100 to 1000 nM. At Cbl-b, this compound came in with a 50% inhibitory concentration (IC50) of under 100 nM.

Take `COCCNCc1cc(C(=O)Nc2cc(-c3ccc(F)cc3-n3cc(CF)nn3)cc(C3CC3)n2)c(=O)n(C2CC2)c1` [Example 73, 1-Cyclopropyl-N-[6-cyclopropyl-4-[4-fluoro-2-[4-(fluoromethyl)triazol-1-yl]phenyl]pyridin-2-yl]-5-[(2-methoxyethylamino)methyl]-2-oxopyridine-3-carboxamide]: the EC50 in the assay on Jurkat cells lay within 1000 to 5000 nM. For the same compound, the IC50 on Cbl-b lay in the range of 100 to 1000 nM.

On to `Cc1ccnnc1-c1cc(F)ccc1-c1cc(NC(=O)c2cc(CN3CCO[C@H](C)C3)cn(C3CC3)c2=O)nc(C2CC2)c1` [Example 74, 1-cyclopropyl-N-[6-cyclopropyl-4-[4-fluoro-2-(4-methylpyridazin-3-yl)phenyl]pyridin-2-yl]-5-[[(2R)-2-methylmorpholin-4-yl]methyl]-2-oxopyridine-3-carboxamide], for which the EC50 in the assay with Jurkat cells was in the range of 1000 to 5000 nM. This compound displayed an IC50 on Cbl-b of 100 to 1000 nM.

For `Cc1cccnc1-c1cc(C#N)ccc1-c1cc(NC(=O)c2cc(CN3CCO[C@H](C)C3)cn(C3CC3)c2=O)nc(C2CC2)c1` [Example 75, N-[4-[4-cyano-2-(3-methylpyridin-2-yl)phenyl]-6-cyclopropylpyridin-2-yl]-1-cyclopropyl-5-[[(2R)-2-methylmorpholin-4-yl]methyl]-2-oxopyridine-3-carboxamide], the EC50 in the assay with Jurkat cells was in the range of 1000 to 5000 nM. Moreover, at Cbl-b, the IC50 lay within 100 to 1000 nM.

On to `C[C@H]1CCCN(Cc2cc(C(=O)Nc3cccc(C4(c5nncn5C)CC(F)(F)C4)c3)c(=O)n(C3CC3)c2)C1` [Example 79, 1-cyclopropyl-N-[3-[3,3-difluoro-1-(4-methyl-1,2,4-triazol-3-yl)cyclobutyl]phenyl]-5-[[(3S)-3-methylpiperidin-1-yl]methyl]-2-oxopyridine-3-carboxamide], for which the 50% effective concentration (EC50) with Jurkat cells is 100 to 1000 nM. The compound further had a 50% inhibitory concentration (IC50) on Cbl-b of 100 to 1000 nM.

As for `CO[C@H]1C[C@@](c2cccc(NC(=O)c3cc(CN4CCC[C@H](C)C4)cn(C4CC4)c3=O)c2)(c2nncn2C)C1` [Example 80, 1-cyclopropyl-N-[3-[3-methoxy-1-(4-methyl-1,2,4-triazol-3-yl)cyclobutyl]phenyl]-5-[[(3S)-3-methylpiperidin-1-yl]methyl]-2-oxopyridine-3-carboxamide], the half-maximal effective concentration (EC50) with Jurkat cells lay within 100 to 1000 nM. The IC50 on Cbl-b lay in the range of 100 to 1000 nM.

`CO[C@H]1C[C@](c2cccc(NC(=O)c3cc(CN4CCC[C@H](C)C4)cn(C4CC4)c3=O)c2)(c2nncn2C)C1` [Example 81, 1-cyclopropyl-N-[3-[3-methoxy-1-(4-methyl-1,2,4-triazol-3-yl)cyclobutyl]phenyl]-5-[[(3S)-3-methylpiperidin-1-yl]methyl]-2-oxopyridine-3-carboxamide]: the EC50 in the assay on Jurkat cells lay within 100 to 1000 nM. The same compound displayed a 50% inhibitory concentration (IC50) on Cbl-b of 100 to 1000 nM.

For the compound `CO[C@@H](C)CNCc1cc(C(=O)Nc2cc(-c3ccc(C#N)cc3C(=O)N3CC(F)(F)C3)cc(C3CC3)n2)c(=O)n(C2CC2)c1` [Example 95, N-(4-{4-cyano-2-[(3,3-difluoro-1-azetidinyl)carbonyl]phenyl}-6-cyclopropyl-2-pyridyl)-5-{[(S)-2-methoxypropylamino]methyl}-1-cyclopropyl-2-oxo-1,2-dihydronicotinamide], the EC50 with Jurkat cells is under 100 nM. On Cbl-b, this compound had an IC50 of under 100 nM.

Regarding `CO[C@@H](C)CNCc1cc(C(=O)Nc2cc(-c3c(F)cc(Cl)cc3C(=O)N3CC(F)(F)C3)cc(C3CC3)n2)c(=O)n(C2CC2)c1` [Example 102, N-[4-[4-chloro-2-(3,3-difluoroazetidine-1-carbonyl)-6-fluorophenyl]-6-cyclopropylpyridin-2-yl]-1-cyclopropyl-5-[[[(2S)-2-methoxypropyl]amino]methyl]-2-oxopyridine-3-carboxamide], the concentration for a half-maximal effect (EC50) in the assay with Jurkat cells was under 100 nM. Moreover, the IC50 on Cbl-b was under 100 nM.

For `CO[C@@H](C)CNCc1cc(C(=O)Nc2cc(-c3ccc(Cl)cc3C(=O)N3CC(F)(F)C3)cc(C3CC3)n2)c(=O)n(C)c1` [Example 105, N-[4-[4-chloro-2-(3,3-difluoroazetidine-1-carbonyl)phenyl]-6-cyclopropylpyridin-2-yl]-5-[[[(2S)-2-methoxypropyl]amino]methyl]-1-methyl-2-oxopyridine-3-carboxamide], the EC50 in the assay with Jurkat cells is under 100 nM. The IC50 at Cbl-b is under 100 nM.

`CC(C)CNCc1cc(C(=O)Nc2cc(-c3ccc(Cl)cc3C(=O)N3CC(F)(F)C3)cc(C3CC3)n2)c(=O)n(C)c1` [Example 106, N-[4-[4-chloro-2-(3,3-difluoroazetidine-1-carbonyl)phenyl]-6-cyclopropylpyridin-2-yl]-1-methyl-5-[(2-methylpropylamino)methyl]-2-oxopyridine-3-carboxamide]: in the assay with Jurkat cells, the half-maximal effective concentration (EC50) is under 100 nM. Also, the half-inhibitory concentration (IC50) on Cbl-b is under 100 nM.

With `Cn1cc(CNC[C@@H]2CCCO2)cc(C(=O)Nc2cc(-c3ccc(Cl)cc3C(=O)N3CC(F)(F)C3)cc(C3CC3)n2)c1=O` [Example 107, N-[4-[4-chloro-2-(3,3-difluoroazetidine-1-carbonyl)phenyl]-6-cyclopropylpyridin-2-yl]-1-methyl-2-oxo-5-[[[(2S)-oxolan-2-yl]methylamino]methyl]pyridine-3-carboxamide], the 50% effective concentration (EC50) with Jurkat cells is under 100 nM. For the same compound, the IC50 on Cbl-b is under 100 nM.

Values taken from patent publication US20260116868A1 (Arcus Biosciences, Inc., priority 2023, published 2026).
